# Results taken from patent US20220142960A1, “Compositions and Methods for Treating Metabolic Disorders” (VeroScience LLC, priority 2013, published 2022).
# How the values were obtained:
# Format in all cases: in vivo, rat
# [1] = tested on: insulin resistant high fat fed rats; assay: NMDA agonist directed to the SuMN in high fat fed rats, GTT; conditions: female Sprague Dawley HFD-sensitive rats, cannula to SuMN daily for 2 weeks at offset of light, relative to vehicle, FIG. 6
# Description: Treatment of insulin resistant high fat fed rats with an NMDA agonist directed to the SuMN improved insulin resistance and glucose intolerance. Female Sprague Dawley rats were fed a high fat diet for one month and those animals most sensitive to the diet (those gaining the most weight in the group) were then treated with either an NMDA agonist or vehicle for a three minute period at the offset of light (14 hour daily photoperiod) via a cannula directed to the SuMN daily for 2 weeks while maintained on the high fat diet. At the end of the treatment period, animals were subjected to a glucose tolerance test (GTT) (3 g/kg of glucose) and plasma samples were taken before and at 30, 60, 90, and 120 minutes after glucose treatment. Plasma samples were analyzed for glucose and insulin levels.
# [2] = tested on: insulin resistant rats on a high fat diet; assay: Dopamine infusion into the SCN of high fat fed SHR rats, GTT; conditions: male SHR rats on high fat diet
# Description: Male SHR rats at approximately 12 weeks of age were fed a high fat diet for one month and were then treated with either dopamine or vehicle for a three minute period at the offset of light (14 hour daily photoperiod) via a cannula directed to the SCN daily for 2 weeks while maintained on the high fat diet. At the end of the treatment period, animals were subjected to a glucose tolerance test (GTT) (3 g/kg of glucose) and plasma samples were taken before and at 30, 60, 90, and 120 minutes after glucose treatment. Plasma samples were analyzed for glucose and insulin levels.
# dopamine neurons in SuMN = assay: Microdialysis of dopamine metabolites at SCN after intra-SuMN AMPA infusion; conditions: compared to vehicle
# Description: Female Sprague-Dawley rats (12) were housed in a room at constant temperature and humidity with a 14/10 light/dark cycle were fed regular diet ad libitum. Each rat was microinjected with retrograde tracer fluorogold (4%, 20 nl) to SCN and allowed to rest for 10 days. The rats were then perfused with 4% paraformaldehyde and the brains were dissected for immunohistochemistry. Dopamine neurons projecting to SCN were identified with double immunochemistry of fluorogold (FG) and tyrosine hydroxylase (TH). To verify functional connection, dopamine metabolites at SCN were measured by microdialysis in freely moving rats following infusion of AMPA (0.3 mM/0.5 µl) to SuMN.
# [3] = tested on: high fat diet-resistant rats (HF-R); assay: Chronic intra-SuMN AMPA treatment of high fat diet-resistant rats
# Description: (§1) In separate protocols, female Sprague-Dawley high fat diet-resistant rats (HF-R) (16 animals) were fed high fat diets for 4 months or female Sprague-Dawley high fat diet-sensitive rats (HF-S) (16 animals) were fed high fat diets for 3 months. Following initial feeding protocols, AMPA (0.03 mM/0.5 µl) or vehicle was microinjected into SuMN daily for 13 (HF-R animals) or 14 d (HF-S) at the onset of locomotor activity. At the end of AMPA treatment, HF-R animals were sacrificed by decapitation. Trunk blood was collected for glucose and insulin analysis retroperitoneal fat mass were weighed. At the end of AMPA treatment, HF-S animals were subjected to glucose tolerance tests (GTT) and two days after GTT, were sacrificed. Trunk blood was collected for glucose and insulin analysis and retroperitoneal fat mass were weighed. Body weight and food consumption were measured daily throughout both protocols.
# [4] = tested on: high fat diet-sensitive rats (HF-S); assay: Chronic intra-SuMN AMPA treatment of high fat diet-sensitive rats, GTT
# Description: as §1
# [5] = cannula to SCN daily for 2 weeks at offset of light, relative to vehicle, FIG. 7
# [6] = AMPA into SuMN daily for 13 d, versus vehicle, p<0.01
smiles,measurement,setting,value
CN[C@H](CC(=O)O)C(=O)O [NMDA],insulin resistance,[1],significantly improved
same,plasma glucose levels during the GTT,[1],significantly reduced
same,plasma insulin levels during the GTT,[1],significantly reduced
same,insulin resistance,[2]; [5],significantly improved
same,plasma glucose levels during the GTT,[2]; [5],significantly reduced
same,plasma insulin levels during the GTT,[2]; [5],significantly reduced
NCCc1ccc(O)c(O)c1 [dopamine],insulin resistance,[2]; [5],improved
same,glucose intolerance,[2]; infusion directly into the SCN daily for 2 weeks,improved
Cc1o[nH]c(=O)c1CC(N)C(=O)O (stereo not shown) [AMPA],dopamine metabolite HVA at SCN area,"dopamine neurons in SuMN; intra-SuMN AMPA infusion 0.3 mM/0.5 µl, freely moving rats, p<0.05, FIG. 1A",significant elevations
same,dopamine metabolite DOPAC at SCN area,"dopamine neurons in SuMN; intra-SuMN AMPA infusion 0.3 mM/0.5 µl, freely moving rats, p<0.05, FIG. 1B",significant elevations
same,serotonin metabolite 5-HIAA at the SCN,"dopamine neurons in SuMN; intra-SuMN AMPA infusion, FIG. 1C",did produce a significant elevation
same,body weight,"[3]; AMPA 0.03 mM/0.5 µl into SuMN daily for 13 d at onset of locomotor activity, versus vehicle, p<0.05",significantly reduced
same,retroperitoneal fat,"[3]; AMPA into SuMN daily for 13 d, vehicle 13.4 g",9.02 g
same,daily food consumption,"[3]; AMPA into SuMN daily for 13 d, vehicle 17.7 g, p<0.05",13.7 g
same,total abdominal fat,"[3]; AMPA into SuMN daily for 13 d, vehicle 19.1 g",12.9 g
same,reduction of retroperitoneal fat,[3]; [6],33%
same,reduction of total abdominal fat,[3]; [6],32%
same,plasma glucose concentration during the GTT,"[4]; AMPA 0.03 mM/0.5 µl into SuMN daily for 14 d, compared to vehicle",significantly reduced
same,total area under the glucose GTT curve,[4]; AMPA into SuMN daily for 14 d,decreased
same,basal plasma insulin level,"[4]; AMPA into SuMN daily for 14 d, decreased from 2.2, P<0.05",1.15 ng/mL
same,basal plasma glucose level,"[4]; AMPA into SuMN daily for 14 d, decreased from 114, P<0.05",106 mg/dL
same,Insulin resistant index (HOMA-IR),"[4]; AMPA into SuMN daily for 14 d, reduced from 13.0±1.79, p=0.018",6.3±1.70
